Consider 4 molecules from patent US7666644B2, “Glyphosate-N-acetyltransferase (GAT) genes” (Verdia, Inc., priority 2004, dated 2010).

In data set [1] the target is non-native GAT polypeptide 25-8H7 (glyphosate-N-acetyltransferase), SEQ ID NO: 907 (Bacillus licheniformis, UniProt Q65LG7, E119R/E14D/E65Q/E67K/E68K/G37R/G38S/I132T/I135V/I15L/I19V/I53V/I91V/K101R/K144R/K58Q/L105M/L106I/L145I/L26I/L36T/L97I/M75V/R47G/R92K/T33S/T89S/V114A/Y130F/Y31F/Y45F). The data set is described as follows: GAT activity with respect to glyphosate, aspartate and serine (Example 29, Table 21). As to conditions: 25 mM Hepes, pH 6.8, 10% ethylene glycol.

The subject of data set [2] is GAT 20-30C6 (SEQ ID NO: 683) variant H138S. The data set is described as follows: GAT kinetics, 0 KCl, Bradford (Example 20, Table 12). The format is biochemical. As to conditions: Bradford protein assay.
Data set [3] has as its system native or low activity GAT enzymes (glyphosate-N-acetyltransferase). The data set is described as follows: Kinetics typical of native or low activity GAT enzymes (Example 4). In kind it is biochemical.
The subject of data set [4] is GAT polypeptide (glyphosate-N-acetyltransferase), SEQ ID NO:445. The data set is described as follows: Standard spectrophotometric kcat and KM determination (Example 7). In kind it is biochemical. As to conditions: 20 mM HEPES pH 6.8, 10% ethylene glycol, 0.2 mM acetyl CoA, about 23° C. As for the experimental part: (§1) KM was calculated from the initial reaction rates obtained from concentrations of glyphosate ranging from 0.125 to 10 mM, using the Lineweaver-Burke transformation of the Michaelis-Menten equation. kcat/KM was determined by dividing the value determined for kcat by the value determined for KM.

The subject of data set [5] is GAT 20-30C6 (SEQ ID NO: 683) variant D34A. Nature of the data set: GAT kinetics, 0 KCl, Bradford (Example 20, Table 12). The format is biochemical. As to conditions: Bradford protein assay. On the procedure: as §1
(§2) The amino acids aspartic acid (Asp, D), histidine (His, H) and cysteine (Cys, C) are known to be associated with the active sites of various acetyltransferase enzymes. To determine if any such residues play a role in GAT activity, all D, C, and H residues of GAT20-30C6 (SEQ ID NO:683) were individually mutated to alanine (Ala, A) and the mutated enzymes assayed for N-acetylglyphosate activity.

Data set [6] relates to GAT 20-30C6 (SEQ ID NO: 683) variant H41A. The data set is described as above. The format is biochemical. The conditions noted are these: Bradford protein assay. As for the experimental part:
as §1, §2

For data set [7], the system named is GAT 20-30C6 (SEQ ID NO: 683) variant H138R. Described as above. The conditions noted are these: Bradford protein assay. The format is biochemical. As for the experimental part: as §1, §2
Data set [8] concerns GAT 20-30C6 (evolved glyphosate-N-acetyltransferase), SEQ ID NO: 683. Described as above. The conditions noted are these: Bradford protein assay. The format is biochemical. On the procedure: as §1, §2
The test system of data set [9] is GAT 20-30C6 (SEQ ID NO: 683) variant H138A. The description is as above. In kind it is biochemical. As to conditions: Bradford protein assay. As for the experimental part: as §1, §2
For data set [10], the target named is T1, Bacillus licheniformis strain B6 glyphosate-N-acetyltransferase (GAT), native, SEQ ID NO:7 (Bacillus paralicheniformis, UniProt A0AAW6KBE1).
T1 construct: untagged
Nature of the data set: Apparent KM and kcat of purified GAT (Example 2). In kind it is biochemical.
Procedure: Lysis of the cells was effected by the addition of 1 ml of the following buffer to 0.2 g of cells: 25 mM HEPES, pH 7.3, 100 mM KCl and 10% methanol (HKM) plus 0.1 mM EDTA, 1 mM DTT, 1 mg/ml chicken egg lysozyme, and a protease inhibitor cocktail obtained from Sigma and used according to the manufacturer's recommendations. After 20 minutes incubation at room temperature (e.g., 22-25° C.), lysis was completed with brief sonication. The lysate was centrifuged and the supernatant was desalted by passage through Sephadex G25 equilibrated with HKM. Partial purification was obtained by affinity chromatography on CoA Agarose (Sigma). The column was equilibrated with HKM and the clarified extract was allowed to pass through under hydrostatic pressure.
Purification to homogeneity was obtained by gel filtration of the partially purified protein through Superdex 75 (Pharmacia).
Initial reaction rates were determined using mass spectrometric detection of N-acetyl glyphosate. Five μl were repeatedly injected into the instrument and reaction rates were obtained by plotting reaction time vs area of the integrated peak (FIG. 6).

The subject of data set [11] is high activity GAT enzymes (glyphosate-N-acetyltransferase). Nature of the data set: Kinetics typical of high activity GAT enzymes (Example 5). The format is biochemical.
A short description of data set [12]: Kinetics of D, C, H residue mutants of GAT20-30C6. As to conditions: 0 KCl; Bradford protein assay. The format is biochemical.
Excerpt: as §2

Data set [13] in a line: Transfer of the propionyl group from propionyl CoA to glyphosate, DTNB detection. The format is biochemical. The conditions noted are these: 1 mM propionyl CoA, 5 mM glyphosate or no glyphosate, 30 minutes. On the procedure: The ability of GAT variants (B6 (SEQ ID NO:7), 0—6D10 (SEQ ID NO:448), 17-15H3 (SEQ ID NO:601), and 20-8H12c (SEQ ID NO:817)) to transfer the propionyl group from propionyl CoA to glyphosate was tested in reaction mixtures containing 5 mM glyphosate or no glyphosate. Propionyl CoA was present at 1 mM. After 30 minutes the reactions were terminated and the presence of free […] was determined by the addition of DTNB.

Data set [14] in a line: GAT activity with substrate phospho-L-serine (DTNB). In kind it is biochemical. On the procedure:
GAT activity of several GAT polypeptides of the present invention was evaluated with respect to a number of amino acid substrates. The GAT polypeptide, AcCoA and amino substrate were incubated in 25 mM Hepes, pH 6.8, 10% ethylene glycol in the wells of a 96-well polystyrene plate. After 30 minutes, the reactions were stopped by the addition of 30 μl of 10 mM 5,5′-dithiobis-2-nitrobenzoate (DTNB) in 500 mM Tris, pH 7.5. After 2 minutes, absorbance was read at 412 nm in a Spectramax Plus plate reader (Molecular Devices, Sunnyvale, Calif.).

Sequence of non-native GAT polypeptide 25-8H7 (glyphosate-N-acetyltransferase), SEQ ID NO: 907 (Q65LG7 entry or part of it with the stated changes): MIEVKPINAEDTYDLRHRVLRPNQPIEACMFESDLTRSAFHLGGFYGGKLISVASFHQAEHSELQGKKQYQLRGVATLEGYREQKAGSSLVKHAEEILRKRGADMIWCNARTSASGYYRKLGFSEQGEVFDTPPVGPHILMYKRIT

With `N[C@@H](CO)C(=O)O` [Serine, L-serine], in [1], the “kcat ± SE” value is 388 ± 18.5 min⁻¹.

In the case of `O=C(O)CNCP(=O)(O)O` [glyphosate, N-phosphonomethylglycine], the Km in data set [2] is 7.1 mM; in data set [3] (read-out: KM for glyphosate), 1.5 to 10 mM; in data set [4], 500 µM; in [5] it was 2.33 mM; in data set [6] it was 4.8 mM; in [7] it was 17.8 mM. The Km is 182 µM in data set [8]; 2.9 ± 0.2 mM in data set [10] (read-out: KM for glyphosate, apparent, saturating (200 μM) Acetyl CoA, 5 mM morpholine pH 7.7, 20% ethylene glycol); under 100 µM in data set [11]. Moreover, the kcat in data set [2] was 5.35 min⁻¹; in [3], “approximately 1 min^−1”; in data set [4], 322 min⁻¹; in [5], 127 min⁻¹; in data set [6], 208 min⁻¹; in data set [7] it was 44.3 min⁻¹. For the same molecule, the kcat was 386 min⁻¹ in [8]; under 0.02 min⁻¹ in [9]; 6 min⁻¹ in [10] (from Vmax at known enzyme concentration, 5 mM glyphosate, varying Acetyl CoA); “up to 400 min^−1” in data set [11].

B1: 20-30C6: evolved GAT enzyme, SEQ ID NO:683 (protein)
chain: MIEVKPINAEDTYELRHRVLRPNQPIEACMFESDLLRGAFHLGGFYGGKLISVASFHQAEHTELQGQKQYQLRGVATLEGYREQKAGSSLVKHAEEILRKRGADILWCNARTSASGYYKKLGFSEQGEVFDTPPVGPHILMYKRIT
modifications: D_GE002283_GAT20-30C6
As to B1, the “% kcat/Km of 20-30C6” value in data set [12] was found to be 100%.

B2: B6: native GAT enzyme isolated from B. licheniformis strain B6, SEQ ID NO:7 (protein)
chain: MIEVKPINAEDTYEIRHRILRPNQPLEACKYETDLLGGTFHLGGYYRDRLISIASFHQAEHSELEGQKQYQLRGMATLEGYREQKAGSTLIRHAEELLRKKGADLLWCNARTSVSGYYKKLGFSEQGGVYDIPPIGPHILMYKKLT
modifications: Unidentified microorganism derived from soil sample.; B6 GAT
For the molecule B2, the “glyphosate-dependent hydrolysis of propionyl CoA” value in [13] is given as “showed glyphosate-dependent hydrolysis of propionyl CoA”. Besides, the “activity with phospho-L-serine compared with glyphosate” value in [14] is recorded as “about 2 times”.
